How the values were obtained:
ENA-78 [1] = assay: IL-1beta-stimulated ENA-78 production from HUVECs, cytometric immunofluorescence; assay type: cell-based, human; conditions: for effect of co-treatment on the effect of AT on IL-1beta-stimulated ENA-78 production: mevalonate 250 μM, FPP 5 μM, GGPP 5 μM; for ENA-78 production reduced by, compared with IL-1beta-stimulated cells in the absence of AT: AT pre-treatment 2 h before IL-1beta
Method: Human umbilical vein endothelial cells (HUVECs) (Clonetics Cell Systems; Cambrex Bio Science Walkersville, Inc., Walkersville, USA) were cultured as previously described. Briefly, HUVECs between passes three and four were seeded at a density of 2.5×10^4 cells per cm^2 and cultured to 80% confluence with endothelial cell growth-supplemented medium (EGM-2-endothelial cell medium-2; Cambrex Bio Science Walkersville, Inc.). Once confluent, media was changed to serum free endothelial basal media (EBM-2-endothelial cell medium-2; Cambrex Bio Science Walkersville, Inc.) for 24 hours prior to treatment, in which EBM-2 media supplemented to a 2% FBS concentration was used. Treatments consisted of atorvastatin calcium (AT; LKT Laboratories Inc., St. […] All were dissolved in molecular grade water. All final DMSO concentrations were less then 0.1%. […] In experiments investigating the impact of AT on IL-1beta-stimulated ENA-78 production, HUVECs were pre-treated with AT followed by IL-1beta stimulation two hours later. […] In a separate set of experiments, cells were cultured with IL-1beta and AT in the presence or absence of mevalonate, FPP, and GGPP to determine whether AT inhibition of ENA-78 production was dependent on HMG-CoA reductase inhibition and subsequent downstream pathways. Cell culture supernates for all experiments were stored at -20° C. until analysis, which was performed within seven days. ENA-78 concentrations were measured and normalized to total protein content in cell culture supernates using cytometric immunofluorescence as previously described. Ribonucleic acid (RNA) was isolated using a commercial kit (RNeasy mini kit, Qiagen Inc., Valencia, USA). Complementary deoxyribonucleic acid (cDNA) conversion was performed by high capacity cDNA reverse transcription (Applied Biosystems, Foster City, USA) per protocol using roughly 2 μg of total RNA. RNA quality was assessed by absorbance (Nanodrop, Nanodrop Technologies, Wilmington, USA). Real-time reverse-transcription PCR (RT-PCR) was done using primer and probe sets for CXCL5 normalized to a housekeeping gene, glyceraldehyde-3-phosphate dehydrogenase (GAPDH; Taqman Gene Expression Assays, Applied Biosystems Inc.). […] PCR for both CXCL5 and GAPDH was performed at the same time using the following conditions: 95° C. for 2 minutes; 35 cycles of 95° C. for 30 seconds, 59° C. for 30 seconds, and 72° C. for 30 seconds; followed by 7 minutes of elongation at 72° C. Statistical differences in normalized protein concentrations and gene expression levels were determined by one way ANOVA and post-hoc Tukey analysis. […] An independent t-test was used to compare treatment differences at the same time points in the dose range analysis. […] Statistical analyses were performed with SPSS software, version 11.5 (SPSS Inc., Chicago, USA).

ENA-78 [2] = assay: ENA-78 production by non-stimulated human umbilical vein endothelial cells, multiplex protein measurement; assay type: cell-based; conditions: 24 hours
Method: (§1) Human umbilical vein endothelial cells were obtained (Clonetics Cell Systems; Cambrex Bio Science Walkersville, Inc., Walkersville, Md.). Approximately 5×10^5 viable cells were seeded in endothelial cell growth-supplemented basal medium (EGM-2-endothelial cell medium-2; Cambrex Bio Science Walkersville, Inc.) and maintained at 37° C. under a 5% carbon dioxide atmosphere per manufacturer's protocol. The culture medium was changed 24 hours after seeding and every 48 hours thereafter until confluence. Cells were then treated with trypsin, seeded in a 48-well culture dish, and incubated under the conditions previously described. Cells used in this Example were from the third passage.
(§2) After cells reached 70-80% confluence in the culture dish, they were allowed to become quiescent in unsupplemented, serum-free medium for 24 hours before treatment and then placed in medium containing 2% fetal bovine serum. Atorvastatin (LKT Laboratories Inc., St. Paul, Minn.) was dissolved in dimethylsulfoxide (Sigma-Aldrich, St. Louis, Mo.). Cells were treated for 24 hours with atorvastatin 1-50 μM alone or with atorvastatin plus mevalonate 250 μM (Sigma-Aldrich). Controls were cells cultured without atorvastatin or atorvastatinmevalonate. […] All experiments were performed in duplicate.
(§3) After treatment, culture-conditioned media were collected, divided into aliquots, and stored at −80° C. for no longer than 7 days until multiplex measurement of chemokines, cytokines, and angiogenic factors was performed.
(§4) The culture-conditioned media protein content of epithelial neutrophil-activating peptide-78 (ENA-78), interleukin-8, (IL-8), monocyte chemotactic protein-1 (MCP-1), interleukin-6 (IL-6), interleukin-10 (IL-10), fibroblast growth factor (FGF), and granulocyte colony-stimulating factor (G-CSF) were measured by means of flow-based immunofluorescence multiplex detection (Fluorokine MAP Human Cytokine Panel; R&D Systems Inc., Minneapolis, Minn.) with the Luminex 100 IS platform (Luminex Corp., Austin, Tex.). Concentrations for each sample were normalized against milligrams of total protein by using a standard bicinchoninic acid protein assay (Pierce Biotechnology, Inc., Rockford, Ill.). Samples were assayed in duplicate.
(§5) Standard curves of best fit for each analyte were generated by plotting the median fluorescence intensities of the analyte standards against their known concentrations by using Beadview multiplex data analysis software version 1 (Upstate, Charlottesville, Va.).
(§6) Differences in biomolecular concentrations were compared by treatment group by applying one-way analysis of variance and a post-hoc Tukey's test as appropriate. The Jonckheere Terpstra test was performed to assess the trend for differences in biomolecular concentrations across concentrations of atorvastatin. […]

IL-8 = IL-8 production by non-stimulated human umbilical vein endothelial cells, multiplex protein measurement; assay type: cell-based
Method: as §1, §2, §3, §4, §5
Differences in biomolecular concentrations were compared by treatment group by applying one-way analysis of variance and a post-hoc Tukey's test as appropriate. The Jonckheere Terpstra test was performed to assess the trend for differences in biomolecular concentrations across concentrations of atorvastatin. A p value below 0.05 was considered to indicate a statistically significant difference. Statistical analyses were performed with SPSS software, version 11.5 (SPSS Inc., Chicago, Ill.).

MCP-1 = MCP-1 production by non-stimulated human umbilical vein endothelial cells, multiplex protein measurement; assay type: cell-based
Method: as §1, §2, §3, §4, §5, §6

IL-6 = IL-6 production by non-stimulated human umbilical vein endothelial cells, multiplex protein measurement; assay type: cell-based; conditions: increasing concentration of atorvastatin (1-50 μM), 24 hours, FIG. 11A
Method: as §1, with “passage. […]” for “passage.”
as §4, with “Concentrations for each sample were normalized against milligrams of total protein by using a standard bicinchoninic acid protein assay (Pierce Biotechnology, Inc., Rockford, Ill.). Samples were assayed in duplicate.” left out

IL-10 = IL-10 production by non-stimulated human umbilical vein endothelial cells, multiplex protein measurement; assay type: cell-based; conditions: atorvastatin 1-50 μM, 24 hours, FIG. 11B
Method: as §1, with “passage. […]” for “passage.”
as §4, with “Concentrations for each sample were normalized against milligrams of total protein by using a standard bicinchoninic acid protein assay (Pierce Biotechnology, Inc., Rockford, Ill.). Samples were assayed in duplicate.” left out

FGF = FGF production by non-stimulated human umbilical vein endothelial cells, multiplex protein measurement; assay type: cell-based; conditions: atorvastatin 1-50 μM, 24 hours, FIG. 12
Method: as §1, with “passage. […]” for “passage.”
as §4, with “Concentrations for each sample were normalized against milligrams of total protein by using a standard bicinchoninic acid protein assay (Pierce Biotechnology, Inc., Rockford, Ill.). Samples were assayed in duplicate.” left out

G-CSF = G-CSF production by non-stimulated human umbilical vein endothelial cells, multiplex protein measurement; assay type: cell-based; conditions: atorvastatin 1-50 μM, 24 hours, FIG. 12
Method: as §1, with “passage. […]” for “passage.”
as §4, with “Concentrations for each sample were normalized against milligrams of total protein by using a standard bicinchoninic acid protein assay (Pierce Biotechnology, Inc., Rockford, Ill.). Samples were assayed in duplicate.” left out

HUVECs = assay: HUVEC viability, trypan blue cell staining; assay type: cell-based, human; conditions: 24 hours of treatment, any dose of AT from 1 uM to 50 uM, FIG. 13
Method: Human umbilical vein endothelial cells (HUVECs) (Clonetics Cell Systems; Cambrex Bio Science Walkersville, Inc., Walkersville, USA) were cultured as previously described. Briefly, HUVECs between passes three and four were seeded at a density of 2.5×10^4 cells per cm^2 and cultured to 80% confluence with endothelial cell growth-supplemented medium (EGM-2-endothelial cell medium-2; Cambrex Bio Science Walkersville, Inc.). Once confluent, media was changed to serum free endothelial basal media (EBM-2-endothelial cell medium-2; Cambrex Bio Science Walkersville, Inc.) for 24 hours prior to treatment, in which EBM-2 media supplemented to a 2% FBS concentration was used.
Treatments consisted of atorvastatin calcium (AT; LKT Laboratories Inc., St. Paul, USA) 1-50 μM dissolved in dimethyl sulfoxide (DMSO), IL-1beta, mevalonate, farnesyl pyrophosphate (FPP), and geranylgeranyl pyrophosphate (GGPP) were purchased from Sigma-Aldrich (St. Louis, Mo.), with concentrations of 2 ng/ml, 250 μM, 5 μM, and 5 μM used respectively. All were dissolved in molecular grade water. All final DMSO concentrations were less then 0.1%.
Cell viability was assessed by treating HUVECs with AT 1 μM, 5 μM, 10 μM, 25 μM, and 50 μM using trypan blue cell staining. […]

CXCL5 = CXCL5 gene expression in HUVECs, real-time RT-PCR normalized to GAPDH; assay type: cell-based, human
Method: Human umbilical vein endothelial cells (HUVECs) (Clonetics Cell Systems; Cambrex Bio Science Walkersville, Inc., Walkersville, USA) were cultured as previously described. Briefly, HUVECs between passes three and four were seeded at a density of 2.5×10^4 cells per cm^2 and cultured to 80% confluence with endothelial cell growth-supplemented medium (EGM-2-endothelial cell medium-2; Cambrex Bio Science Walkersville, Inc.). Once confluent, media was changed to serum free endothelial basal media (EBM-2-endothelial cell medium-2; Cambrex Bio Science Walkersville, Inc.) for 24 hours prior to treatment, in which EBM-2 media supplemented to a 2% FBS concentration was used. Treatments consisted of atorvastatin calcium (AT; LKT Laboratories Inc., St. […] All were dissolved in molecular grade water. All final DMSO concentrations were less then 0.1%. […] In experiments investigating the impact of AT on IL-1beta-stimulated ENA-78 production, HUVECs were pre-treated with AT followed by IL-1beta stimulation two hours later. […] In a separate set of experiments, cells were cultured with IL-1beta and AT in the presence or absence of mevalonate, FPP, and GGPP to determine whether AT inhibition of ENA-78 production was dependent on HMG-CoA reductase inhibition and subsequent downstream pathways. Cell culture supernates for all experiments were stored at -20° C. until analysis, which was performed within seven days. ENA-78 concentrations were measured and normalized to total protein content in cell culture supernates using cytometric immunofluorescence as previously described. Ribonucleic acid (RNA) was isolated using a commercial kit (RNeasy mini kit, Qiagen Inc., Valencia, USA). […] RNA quality was assessed by absorbance (Nanodrop, Nanodrop Technologies, Wilmington, USA). […] Statistical differences in normalized protein concentrations and gene expression levels were determined by one way ANOVA and post-hoc Tukey analysis. […]

Compound: geranylgeranyl pyrophosphate [GGPP]
- effect of co-treatment on the effect of AT on IL-1beta-stimulated ENA-78 production (ENA-78 [1]; IL-1beta and AT 10 uM, FIG. 16): partially reversed

Compound: CC(C)c1c(C(=O)Nc2ccccc2)c(-c2ccccc2)c(-c2ccc(F)cc2)n1CC[C@@H](O)C[C@@H](O)CC(=O)O [atorvastatin]
- reduction in ENA-78 production compared with untreated controls (ENA-78 [2]; escalating concentrations of atorvastatin (10 μM to 50 μM), FIG. 10A): 45-85%
- ENA-78 production vs untreated control (ENA-78 [2]; lower concentrations of atorvastatin): not significantly altered
- IL-8 concentrations lowered by (IL-8; 1st of the four atorvastatin groups (1-50 μM), 24 hours): 26%
- IL-8 concentrations lowered by (IL-8; 2nd of the four atorvastatin groups (1-50 μM), 24 hours): 72%
- IL-8 concentrations lowered by (IL-8; 3rd of the four atorvastatin groups (1-50 μM), 24 hours): 83%
- IL-8 concentrations lowered by (IL-8; 4th of the four atorvastatin groups (1-50 μM), 24 hours): 89%
- minimum effective concentration giving significant reduction in IL-8 compared with control (IL-8; 24 hours, FIG. 10B): 5 µM
- IL-8 production (IL-8; atorvastatin 5 μM, 24 hours (control 551±69)): 155±45 pg/mg protein
- MCP-1 concentrations vs control condition (MCP-1; concentrations of atorvastatin less than 50 μM): did not significantly differ
- reduction in MCP-1 (MCP-1; highest concentration of atorvastatin (50 μM), 24 hours): 83%
- MCP-1 production (MCP-1; highest concentration of atorvastatin (50 μM), 24 hours (control 4556±514)): 782±105 pg/mg protein
- graded reduction of IL-6 production (IL-6): 29-83%
- treatment effect on IL-10 (IL-10): no treatment effect
- concentrations of FGF (FGF): did not change
- concentrations of G-CSF (G-CSF): did not change
- HUVEC viability compared with control (HUVECs): no significant differences
- ENA-78 production reduced by, compared with IL-1beta-stimulated cells in the absence of AT (ENA-78 [1]; 1st of the five AT dose groups (1, 5, 10, 25, 50 μM)): 38%
- ENA-78 production reduced by, compared with IL-1beta-stimulated cells in the absence of AT (ENA-78 [1]; 2nd of the five AT dose groups (1, 5, 10, 25, 50 μM)): 70%
- ENA-78 production reduced by, compared with IL-1beta-stimulated cells in the absence of AT (ENA-78 [1]; 3rd of the five AT dose groups (1, 5, 10, 25, 50 μM)): 78%
- ENA-78 production reduced by, compared with IL-1beta-stimulated cells in the absence of AT (ENA-78 [1]; 4th of the five AT dose groups (1, 5, 10, 25, 50 μM)): 93%
- ENA-78 production reduced by, compared with IL-1beta-stimulated cells in the absence of AT (ENA-78 [1]; 5th of the five AT dose groups (1, 5, 10, 25, 50 μM)): 99%
- IL-1beta-stimulated ENA-78 production (ENA-78 [1]; AT at concentrations ≧25 uM): returned to baseline
- IL-1beta-stimulated ENA-78 production (ENA-78 [1]; IL-1beta and AT 10 uM, FIG. 16): 1054 ± 349 pg/mg
- time at which AT attenuation of ENA-78 production relative to IL-1beta was most pronounced (ENA-78 [1]; time course 0, 4, 12, 24, 48 hours, FIG. 15): 48 h
- constitutive expression of CXCL5 (CXCL5; AT alone, 24 hours, FIG. 17): significantly lowered
- CXCL5 expression compared to IL-1beta alone (CXCL5; pre-treated with 10 μM of AT followed by IL-1beta in two hours): no difference

Compound: farnesyl pyrophosphate [FPP]
- effect of co-treatment on the effect of AT on IL-1beta-stimulated ENA-78 production (ENA-78 [1]; IL-1beta and AT 10 uM, FIG. 16): partially reversed

From patent publication US20080045582A1, “ENA-78 Gene Polymorphisms and Protein Concentrations as Diagnostic and Prognostic Tools” (priority 2006, published 2008)
